# Assay results reported in patent publication EP0726261A1, “Herbidical 1,2,4 thiadiazoles” (American Cyanamid Company, priority 1995, dated 1996).
# Columns and labels:
# Assay type in all cases: in vivo
# Setaria viridis [1] = assay: Preemergence herbicidal activity (Example 67); parameters: herbicide rating, SETVI: scale not given here; conditions: pre, 800 g/ha; for herbicide rating, SETVI: rated about 1-3 weeks after treatment
# In short: (§1)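 Soil surface of seeded cups sprayed with compound (800g/ha, 400 L/ha volume) from acetone/0.5% TRITON X-155 solutions diluted in water. Herbicidal effect scored on a rating scale roughly 1-3 weeks later, plants held in greenhouse.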
# Alopecurus myosuroides [2] = assay: Preemergence herbicidal activity (Example 67); parameters: herbicide rating, ALOMY: scale not given here; conditions: pre, 800 g/ha; for herbicide rating, ALOMY: rated about 1-3 weeks after treatment
# In short: as §1
# Amaranthus retroflexus [3] = assay: Preemergence herbicidal activity (Example 67); conditions: pre, 800 g/ha; for herbicide rating, AMARE: rated about 1-3 weeks after treatment
# In short: as §1
# Abutilon theophrasti [4] = assay: Preemergence herbicidal activity (Example 67); conditions: pre, 800 g/ha; for herbicide rating, ABUTH: rated about 1-3 weeks after treatment
# In short: as §1
# Veronica persica [5] = assay: Preemergence herbicidal activity (Example 67); conditions: pre, 800 g/ha; for herbicide rating, VERPE: rated about 1-3 weeks after treatment
# In short: as §1
# Zea mays [6] = assay: Preemergence herbicidal activity (Example 67); conditions: pre, 800 g/ha; for herbicide rating, ZEAMX: rated about 1-3 weeks after treatment
# In short: as §1
# Galium aparine [7] = assay: Preemergence herbicidal activity (Example 67); conditions: pre, 800 g/ha; for herbicide rating, GALAP: rated about 1-3 weeks after treatment
# In short: as §1
# Helianthus annuus [8] = assay: Preemergence herbicidal activity (Example 67); conditions: pre, 800 g/ha; for herbicide rating, HELAN: rated about 1-3 weeks after treatment
# In short: as §1
# Chenopodium album [9] = assay: Preemergence herbicidal activity (Example 67); conditions: pre, 800 g/ha; for herbicide rating, CHEAL: rated about 1-3 weeks after treatment
# In short: as §1
# Ipomoea hederacea [10] = assay: Preemergence herbicidal activity (Example 67); conditions: pre, 800 g/ha; for herbicide rating, IPOHE: rated about 1-3 weeks after treatment
# In short: as §1
# Triticum aestivum [11] = assay: Preemergence herbicidal activity (Example 67); parameters: herbicide rating, TRZAW: scale not given here; conditions: pre, 800 g/ha; for herbicide rating, TRZAW: rated about 1-3 weeks after treatment
# In short: as §1
# Hordeum vulgare [12] = assay: Postemergence herbicidal activity (Example 67); conditions: pos, 800 g/ha; for herbicide rating, HORVW: rated after 10-21 days
# In short: (§2)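 Rating followed 10–21 days of greenhouse growth after treatment. Treatment was a single spray at a dose of 800 g/ha (400 L/ha spray volume) applied to plants 3–6 weeks old, using a water-diluted acetone solution containing 0.5% Triton X-155.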
# Amaranthus retroflexus [13] = assay: Postemergence herbicidal activity (Example 67); conditions: pos, 800 g/ha; for herbicide rating, AMARE: rated after 10-21 days
# In short: as §2
# Triticum aestivum [14] = assay: Postemergence herbicidal activity (Example 67); conditions: pos, 800 g/ha; for herbicide rating, TRZAW: rated after 10-21 days
# In short: as §2
# Alopecurus myosuroides [15] = assay: Postemergence herbicidal activity (Example 67); conditions: pos, 800 g/ha; for herbicide rating, ALOMY: rated after 10-21 days
# In short: as §2
# Abutilon theophrasti [16] = assay: Postemergence herbicidal activity (Example 67); conditions: pos, 800 g/ha; for herbicide rating, ABUTH: rated after 10-21 days
# In short: as §2
# Veronica persica [17] = assay: Postemergence herbicidal activity (Example 67); conditions: pos, 800 g/ha; for herbicide rating, VERPE: rated after 10-21 days
# In short: as §2
# Zea mays [18] = assay: Postemergence herbicidal activity (Example 67); conditions: pos, 800 g/ha; for herbicide rating, ZEAMX: rated after 10-21 days
# In short: as §2
# Galium aparine [19] = assay: Postemergence herbicidal activity (Example 67); conditions: pos, 800 g/ha; for herbicide rating, GALAP: rated after 10-21 days
# In short: as §2
# Setaria viridis [20] = assay: Postemergence herbicidal activity (Example 67); conditions: pos, 800 g/ha; for herbicide rating, SETVI: rated after 10-21 days
# In short: as §2
# Helianthus annuus [21] = assay: Postemergence herbicidal activity (Example 67); conditions: pos, 800 g/ha; for herbicide rating, HELAN: rated after 10-21 days
# In short: as §2
# Chenopodium album [22] = assay: Postemergence herbicidal activity (Example 67); conditions: pos, 800 g/ha; for herbicide rating, CHEAL: rated after 10-21 days
# In short: as §2
# Ipomoea hederacea [23] = assay: Postemergence herbicidal activity (Example 67); conditions: pos, 800 g/ha; for herbicide rating, IPOHE: rated after 10-21 days
# In short: as §2
# Hordeum vulgare [24] = assay: Preemergence herbicidal activity (Example 67); parameters: herbicide rating, HORVW: scale not given here; conditions: pre, 800 g/ha; for herbicide rating, HORVW: rated about 1-3 weeks after treatment
# In short: as §1
smiles,measurement,setting,value
O=C(NC1CCCc2ccccc21)c1nc(-c2ccccc2F)ns1 (racemic) [Example 53],SET VI rating,Setaria viridis [1],0
same,ALO MY rating,Alopecurus myosuroides [2],0
same,AMA RE rating,Amaranthus retroflexus [3],3 (16-29%)
same,ABU TH rating,Abutilon theophrasti [4],0
same,VER PE rating,Veronica persica [5],6 (65-79%)
same,ZEA MX rating,Zea mays [6],0
same,GAL AP rating,Galium aparine [7],0
same,HEL AN rating,Helianthus annuus [8],0
same,CHE AL rating,Chenopodium album [9],0
same,IPO HE rating,Ipomoea hederacea [10],0
same,TRZ AW rating,Triticum aestivum [11],1 (1-5%)
same,HOR VW rating,Hordeum vulgare [12],2 (6-15%)
same,AMA RE rating,Amaranthus retroflexus [13],0
same,TRZ AW rating,Triticum aestivum [14],2 (6-15%)
same,ALO MY rating,Alopecurus myosuroides [15],1 (1-5%)
same,ABU TH rating,Abutilon theophrasti [16],0
same,VER PE rating,Veronica persica [17],0
same,ZEA MX rating,Zea mays [18],0
same,GAL AP rating,Galium aparine [19],2 (6-15%)
same,SET VI rating,Setaria viridis [20],5 (45-64%)
same,HEL AN rating,Helianthus annuus [21],0
same,CHE AL rating,Chenopodium album [22],0
same,IPO HE rating,Ipomoea hederacea [23],2 (6-15%)
same,HOR VW rating,Hordeum vulgare [24],0
COc1ccc(-c2nsc(C(=O)NC(C)c3ccc(C)s3)n2)cc1 (racemic) [Example 37],"herbicide rating, SETVI",Setaria viridis [1],0
same,"herbicide rating, ALOMY",Alopecurus myosuroides [2],0
same,"herbicide rating, AMARE",Amaranthus retroflexus [3],0
same,"herbicide rating, ABUTH",Abutilon theophrasti [4],0
same,"herbicide rating, VERPE",Veronica persica [5],0
same,"herbicide rating, ZEAMX",Zea mays [6],0
same,"herbicide rating, GALAP",Galium aparine [7],0
same,"herbicide rating, HELAN",Helianthus annuus [8],0
same,"herbicide rating, CHEAL",Chenopodium album [9],6 (65-79%)
same,"herbicide rating, IPOHE",Ipomoea hederacea [10],0
same,"herbicide rating, TRZAW",Triticum aestivum [11],0
same,"herbicide rating, HORVW",Hordeum vulgare [12],2 (6-15%)
same,"herbicide rating, AMARE",Amaranthus retroflexus [13],0
same,"herbicide rating, TRZAW",Triticum aestivum [14],3 (16-29%)
same,"herbicide rating, ALOMY",Alopecurus myosuroides [15],2 (6-15%)
same,"herbicide rating, ABUTH",Abutilon theophrasti [16],0
same,"herbicide rating, VERPE",Veronica persica [17],0
same,"herbicide rating, ZEAMX",Zea mays [18],0
same,"herbicide rating, GALAP",Galium aparine [19],0
same,"herbicide rating, SETVI",Setaria viridis [20],4 (30-44%)
same,"herbicide rating, HELAN",Helianthus annuus [21],0
same,"herbicide rating, CHEAL",Chenopodium album [22],3 (16-29%)
same,"herbicide rating, IPOHE",Ipomoea hederacea [23],1 (1-5%)
same,"herbicide rating, HORVW",Hordeum vulgare [24],0
"C[C@H](NC(=O)c1nsc(-c2ccccc2)n1)c1ccccc1 [Example 48, (S)-5-(Phenyl)-[1,2,4]thiadiazole-3-carboxylic acid, 1-(phenylethyl)amide]",SET VI rating,Setaria viridis [1],0
same,ALO MY rating,Alopecurus myosuroides [2],0
same,AMA RE rating,Amaranthus retroflexus [3],5 (45-64%)
same,ABU TH rating,Abutilon theophrasti [4],0
same,VER PE rating,Veronica persica [5],5 (45-64%)
same,ZEA MX rating,Zea mays [6],0
same,GAL AP rating,Galium aparine [7],0
same,HEL AN rating,Helianthus annuus [8],0
same,CHE AL rating,Chenopodium album [9],0
same,IPO HE rating,Ipomoea hederacea [10],0
same,TRZ AW rating,Triticum aestivum [11],2 (6-15%)
same,HOR VW rating,Hordeum vulgare [12],7 (80-90%)
same,AMA RE rating,Amaranthus retroflexus [13],7 (80-90%)
same,TRZ AW rating,Triticum aestivum [14],5 (45-64%)
same,ALO MY rating,Alopecurus myosuroides [15],6 (65-79%)
same,ABU TH rating,Abutilon theophrasti [16],8 (91-99%)
same,VER PE rating,Veronica persica [17],8 (91-99%)
same,ZEA MX rating,Zea mays [18],5 (45-64%)
same,GAL AP rating,Galium aparine [19],7 (80-90%)
same,SET VI rating,Setaria viridis [20],8 (91-99%)
same,HEL AN rating,Helianthus annuus [21],9 (100% effect)
same,CHE AL rating,Chenopodium album [22],7 (80-90%)
same,IPO HE rating,Ipomoea hederacea [23],7 (80-90%)
same,HOR VW rating,Hordeum vulgare [24],0
C[C@H](NC(=O)c1nsc(-c2cccc(C(F)(F)F)c2)n1)c1ccccc1 [Example 42],SET VI rating,Setaria viridis [1],0
same,ALO MY rating,Alopecurus myosuroides [2],0
same,AMA RE rating,Amaranthus retroflexus [3],0
same,ABU TH rating,Abutilon theophrasti [4],0
same,VER PE rating,Veronica persica [5],2 (6-15%)
same,ZEA MX rating,Zea mays [6],0
same,GAL AP rating,Galium aparine [7],2 (6-15%)
same,HEL AN rating,Helianthus annuus [8],0
same,CHE AL rating,Chenopodium album [9],5 (45-64%)
same,IPO HE rating,Ipomoea hederacea [10],0
same,TRZ AW rating,Triticum aestivum [11],0
same,HOR VW rating,Hordeum vulgare [12],2 (6-15%)
same,AMA RE rating,Amaranthus retroflexus [13],0
same,TRZ AW rating,Triticum aestivum [14],2 (6-15%)
same,ALO MY rating,Alopecurus myosuroides [15],1 (1-5%)
same,ABU TH rating,Abutilon theophrasti [16],0
same,VER PE rating,Veronica persica [17],0
same,ZEA MX rating,Zea mays [18],0
same,GAL AP rating,Galium aparine [19],0
same,SET VI rating,Setaria viridis [20],5 (45-64%)
same,HEL AN rating,Helianthus annuus [21],3 (16-29%)
same,CHE AL rating,Chenopodium album [22],3 (16-29%)
same,IPO HE rating,Ipomoea hederacea [23],2 (6-15%)
same,HOR VW rating,Hordeum vulgare [24],0
CC(NC(=O)c1nsc(-c2ccc(F)cc2)n1)c1cccs1 (racemic) [Example 39],"herbicide rating, SETVI",Setaria viridis [1],0
same,"herbicide rating, ALOMY",Alopecurus myosuroides [2],0
same,"herbicide rating, AMARE",Amaranthus retroflexus [3],4 (30-44%)
same,"herbicide rating, ABUTH",Abutilon theophrasti [4],0
same,"herbicide rating, VERPE",Veronica persica [5],0
same,"herbicide rating, ZEAMX",Zea mays [6],0
same,"herbicide rating, GALAP",Galium aparine [7],0
same,"herbicide rating, HELAN",Helianthus annuus [8],0
same,"herbicide rating, CHEAL",Chenopodium album [9],0
same,"herbicide rating, IPOHE",Ipomoea hederacea [10],0
same,"herbicide rating, TRZAW",Triticum aestivum [11],0
same,"herbicide rating, HORVW",Hordeum vulgare [12],3 (16-29%)
same,"herbicide rating, AMARE",Amaranthus retroflexus [13],3 (16-29%)
same,"herbicide rating, TRZAW",Triticum aestivum [14],3 (16-29%)
same,"herbicide rating, ALOMY",Alopecurus myosuroides [15],3 (16-29%)
same,"herbicide rating, ABUTH",Abutilon theophrasti [16],4 (30-44%)
same,"herbicide rating, VERPE",Veronica persica [17],2 (6-15%)
same,"herbicide rating, ZEAMX",Zea mays [18],6 (65-79%)
same,"herbicide rating, GALAP",Galium aparine [19],5 (45-64%)
same,"herbicide rating, SETVI",Setaria viridis [20],8 (91-99%)
same,"herbicide rating, HELAN",Helianthus annuus [21],6 (65-79%)
same,"herbicide rating, CHEAL",Chenopodium album [22],4 (30-44%)
same,"herbicide rating, IPOHE",Ipomoea hederacea [23],4 (30-44%)
same,"herbicide rating, HORVW",Hordeum vulgare [24],0
